Experimental data reported in patent publication US9695155B2, “Herbicidal substituted pyrimidinyloxy benzene compounds” (E. I. DU PONT DE NEMOURS AND COMPANY, priority 2013, dated 2017).

How the values were obtained:
[1] = test system: canarygrass; experiment: Test D preemergence; assay type: in vivo, Phalaris minor; settings: Phalaris minor, pre-emergence; for pest or weed control at 16 g/ha: 16 g ai/ha, scale 0 (no effect) to 100 (complete control), read-out: Plant response rating, Canarygrass; for pest or weed control at 31 g/ha: 31 g ai/ha; for pest or weed control at 31 g/ha / pest or weed control at 62 g/ha / pest or weed control at 125 g/ha: scale 0-100, read-out: Plant response rating, Canarygrass; for pest or weed control at 62 g/ha: 62 g ai/ha; for pest or weed control at 125 g/ha: 125 g ai/ha
Excerpt: (§1) Seeds of plant species selected from bluegrass (annual bluegrass, Poa annua), blackgrass (Alopecurus myosuroides), canarygrass (littleseed canarygrass, Phalaris minor), chickweed (common chickweed, Stellaria media), galium (catchweed bedstraw, Galium aparine), bromegrass, downy (downy bromegrass, Bromus tectorum), field poppy (Papaver rhoeas), field violet (Viola arvensis), green foxtail (Setaria viridis), deadnettle (henbit deadnettle, Lamium amplexicaule), Italian ryegrass (Lolium multiflorum), kochia (Kochia scoparia), lambsquarters (Chenopodium album), oilseed rape (Brassica napus), pigweed (Amaranthus retroflexus), chamomile (scentless chamomile, Matricaria inodora), Russian thistle (Salsola kali), speedwell (bird's-eye speedwell, Veronica persica), spring barley (Hordeum vulgare), spring wheat (Triticum aestivum), wild buckwheat (Polygonum convolvulus), wild mustard (Sinapis arvensis), wild oat (Avena fatua), wild radish (Raphanus raphanistrum), windgrass (Apera spica-venti), winter barley (Hordeum vulgare), and winter wheat (Triticum aestivum) were planted into a silt loam soil and treated preemergence with test chemicals formulated in a non-phytotoxic solvent mixture which included a surfactant.
(§2) At the same time, these species were planted in pots containing Redi-Earth® planting medium (Scotts Company, 14111 Scottslawn Road, Marysville, Ohio 43041) comprising spaghnum peat moss, vermiculite, wetting agent and starter nutrients and treated with postemergence applications of the test chemicals formulated in the same manner. Plants ranged in height from 2 to 18 cm (1- to 4-leaf stage). Treated plants and controls were maintained in a controlled growth environment for 7 to 21 days after which time all species were compared to controls and visually evaluated. Plant response ratings, summarized in Table D, are based on a scale of 0 to 100 where 0 is no effect and 100 is complete control. A dash (-) response means no test result.

[2] = test system: galium; experiment: Test D preemergence; assay type: in vivo, Galium aparine; settings: Galium, pre-emergence; for pest or weed control at 16 g/ha: 16 g ai/ha, scale 0 (no effect) to 100 (complete control), read-out: Plant response rating, Galium; for pest or weed control at 31 g/ha: 31 g ai/ha; for pest or weed control at 31 g/ha / pest or weed control at 62 g/ha / pest or weed control at 125 g/ha: scale 0-100, read-out: Plant response rating, Galium; for pest or weed control at 62 g/ha: 62 g ai/ha; for pest or weed control at 125 g/ha: 125 g ai/ha
Excerpt: as §1, §2

[3] = test system: bromegrass, downy; experiment: Test D preemergence; assay type: in vivo, Bromus tectorum; settings: Bromus tectorum, pre-emergence; for pest or weed control at 16 g/ha: 16 g ai/ha, scale 0 (no effect) to 100 (complete control), read-out: Plant response rating, Bromegrass, Downy; for pest or weed control at 31 g/ha: 31 g ai/ha; for pest or weed control at 31 g/ha / pest or weed control at 62 g/ha / pest or weed control at 125 g/ha: scale 0-100, read-out: Plant response rating, Bromegrass, Downy; for pest or weed control at 62 g/ha: 62 g ai/ha; for pest or weed control at 125 g/ha: 125 g ai/ha
Excerpt: as §1, §2

[4] = test system: green foxtail; experiment: Test D preemergence; assay type: in vivo, Setaria viridis; settings: Setaria viridis, pre-emergence; for pest or weed control at 16 g/ha: 16 g ai/ha, scale 0 (no effect) to 100 (complete control), read-out: Plant response rating, Foxtail, Green; for pest or weed control at 31 g/ha: 31 g ai/ha; for pest or weed control at 31 g/ha / pest or weed control at 62 g/ha / pest or weed control at 125 g/ha: scale 0-100, read-out: Plant response rating, Foxtail, Green; for pest or weed control at 62 g/ha: 62 g ai/ha; for pest or weed control at 125 g/ha: 125 g ai/ha
Excerpt: as §1, §2

[5] = test system: spring barley; experiment: Test D preemergence; assay type: in vivo, Hordeum vulgare; settings: Hordeum vulgare, pre-emergence; for plant injury at 16 g/ha: 16 g ai/ha, scale 0 (no effect) to 100 (complete control), read-out: Plant response rating, Barley, Spring; for plant injury at 31 g/ha: 31 g ai/ha; for plant injury at 31 g/ha / plant injury at 62 g/ha / plant injury at 125 g/ha: scale 0-100, read-out: Plant response rating, Barley, Spring; for plant injury at 62 g/ha: 62 g ai/ha; for plant injury at 125 g/ha: 125 g ai/ha
Excerpt: as §1, §2

[6] = test system: winter barley; experiment: Test D preemergence; assay type: in vivo, Hordeum vulgare; settings: Hordeum vulgare, pre-emergence; for plant injury at 16 g/ha: 16 g ai/ha, scale 0 (no effect) to 100 (complete control), read-out: Plant response rating, Barley, Winter; for plant injury at 31 g/ha: 31 g ai/ha; for plant injury at 31 g/ha / plant injury at 62 g/ha / plant injury at 125 g/ha: scale 0-100, read-out: Plant response rating, Barley, Winter; for plant injury at 62 g/ha: 62 g ai/ha; for plant injury at 125 g/ha: 125 g ai/ha
Excerpt: as §1, §2

[7] = test system: chamomile; experiment: Test D postemergence; assay type: in vivo, Matricaria inodora; settings: Tripleurospermum inodorum, post-emergence; for pest or weed control at 16 g/ha: 16 g ai/ha, scale 0-100, read-out: Plant response rating, Chamomile; for pest or weed control at 31 g/ha: 31 g ai/ha; for pest or weed control at 31 g/ha / pest or weed control at 62 g/ha / pest or weed control at 125 g/ha: scale 0 to 100 (0 no effect, 100 complete control), read-out: Plant response rating, Chamomile; for pest or weed control at 62 g/ha: 62 g ai/ha; for pest or weed control at 125 g/ha: 125 g ai/ha
Excerpt: as §1, §2

[8] = test system: wild oat; experiment: Test D postemergence; assay type: in vivo, Avena fatua; settings: Avena fatua, post-emergence; for pest or weed control at 16 g/ha: 16 g ai/ha, scale 0-100, read-out: Plant response rating, Oat, Wild; for pest or weed control at 31 g/ha: 31 g ai/ha; for pest or weed control at 31 g/ha / pest or weed control at 62 g/ha / pest or weed control at 125 g/ha: scale 0 to 100 (0 no effect, 100 complete control), read-out: Plant response rating, Oat, Wild; for pest or weed control at 62 g/ha: 62 g ai/ha; for pest or weed control at 125 g/ha: 125 g ai/ha
Excerpt: as §1, §2

[9] = test system: wild radish; experiment: Test D postemergence; assay type: in vivo, Raphanus raphanistrum; settings: Raphanus raphanistrum, post-emergence; for pest or weed control at 16 g/ha: 16 g ai/ha, scale 0-100, read-out: Plant response rating, Radish, Wild; for pest or weed control at 31 g/ha: 31 g ai/ha; for pest or weed control at 31 g/ha / pest or weed control at 62 g/ha / pest or weed control at 125 g/ha: scale 0 to 100 (0 no effect, 100 complete control), read-out: Plant response rating, Radish, Wild; for pest or weed control at 62 g/ha: 62 g ai/ha; for pest or weed control at 125 g/ha: 125 g ai/ha
Excerpt: as §1, §2

Row | Structure (SMILES) | pest or weed control at 16 g/ha [1] [%] | pest or weed control at 31 g/ha [1] [%] | pest or weed control at 62 g/ha [1] [%] | pest or weed control at 125 g/ha [1] [%] | pest or weed control at 16 g/ha [2] [%] | pest or weed control at 31 g/ha [2] [%] | pest or weed control at 62 g/ha [2] [%] | pest or weed control at 125 g/ha [2] [%] | pest or weed control at 16 g/ha [3] [%] | pest or weed control at 31 g/ha [3] [%] | pest or weed control at 62 g/ha [3] [%] | pest or weed control at 125 g/ha [3] [%] | pest or weed control at 16 g/ha [4] [%] | pest or weed control at 31 g/ha [4] [%] | pest or weed control at 62 g/ha [4] [%] | pest or weed control at 125 g/ha [4] [%] | pest or weed control at 16 g/ha [7] [%] | pest or weed control at 31 g/ha [7] [%] | pest or weed control at 62 g/ha [7] [%] | pest or weed control at 125 g/ha [7] [%] | also measured
1 | FC(F)(F)COc1cnn(-c2ccccc2Oc2ncc(Cl)cn2)c1 [Compound 138, 5-chloro-2-[2-[4-(2,2,2-trifluoroethoxy)-1H-pyrazol-1-yl]phenoxy]pyrimidine] | 10 | 10 | 20 | 40 | 25 | 40 | 90 | 100 | 0 | 0 | 0 | 10 | 0 | 0 | 20 | 100 | 0 | 0 | 0 | 0 | plant injury at 16 g/ha [5]: 10%; plant injury at 31 g/ha [5]: 10%; plant injury at 62 g/ha [5]: 10%; plant injury at 125 g/ha [5]: 15%; plant injury at 16 g/ha [6]: 0%; plant injury at 31 g/ha [6]: 0%; plant injury at 62 g/ha [6]: 5%; plant injury at 125 g/ha [6]: 15%; pest or weed control at 16 g/ha [8]: 5%; pest or weed control at 31 g/ha [8]: 0%; pest or weed control at 62 g/ha [8]: 5%; pest or weed control at 125 g/ha [8]: 10%; pest or weed control at 16 g/ha [9]: 60%; pest or weed control at 31 g/ha [9]: 65%; pest or weed control at 62 g/ha [9]: 80%; pest or weed control at 125 g/ha [9]: 90%
2 | FC(F)(F)c1cn(-c2ccccc2Oc2ncc(Cl)cn2)nn1 [Compound 166, 5-chloro-2-[2-[4-(trifluoromethyl)-1H-1,2,3-triazol-1-yl]phenoxy]pyrimidine] | 30 | 50 | 70 | 100 | 65 | 80 | 100 | 100 | 5 | 5 | 25 | 50 | 25 | 65 | 100 | 100 | 5 | 5 | 10 | 15 | plant injury at 16 g/ha [5]: 0%; plant injury at 31 g/ha [5]: 0%; plant injury at 62 g/ha [5]: 30%; plant injury at 125 g/ha [5]: 60%; plant injury at 16 g/ha [6]: 0%; plant injury at 31 g/ha [6]: 0%; plant injury at 62 g/ha [6]: 35%; plant injury at 125 g/ha [6]: 50%; pest or weed control at 16 g/ha [8]: 25%; pest or weed control at 31 g/ha [8]: 30%; pest or weed control at 62 g/ha [8]: 35%; pest or weed control at 125 g/ha [8]: 40%; pest or weed control at 16 g/ha [9]: 70%; pest or weed control at 31 g/ha [9]: 70%; pest or weed control at 62 g/ha [9]: 95%; pest or weed control at 125 g/ha [9]: 95%
3 | Fc1cccc(Oc2ncc(Cl)cn2)c1-n1cc(Br)cn1 [Compound 178, 2-[2-(4-bromo-1H-pyrazol-1-yl)-3-fluorophenoxy]-5-chloropyrimidine] | 10 | 60 | 60 | 95 | 10 | 30 | 45 | 60 | 0 | 0 | 0 | 10 | 0 | 0 | 5 | 95 | 0 | 0 | 5 | 5 | pest or weed control at 16 g/ha [8]: 20%; pest or weed control at 31 g/ha [8]: 25%; pest or weed control at 62 g/ha [8]: 25%; pest or weed control at 125 g/ha [8]: 25%; pest or weed control at 16 g/ha [9]: 60%; pest or weed control at 31 g/ha [9]: 65%; pest or weed control at 62 g/ha [9]: 70%; pest or weed control at 125 g/ha [9]: 80%
